Assay results as given in paper PMC8842601, “Antimicrobial, Cytotoxic and Oxidative Stress Inhibitory Activities of Terpenoids and Flavonols from Senegalia nigrescens (Oliv.) P.J.H. Hurter” (Iranian Journal of Pharmaceutical Research : IJPR, 2021).
≈ marks a conversion by molar mass, not a printed value.

Experiments:
RAW264.7 cells [1] = test: LPS-induced intracellular ROS production (H2DCF-DA assay); format: cell-based, murine; conditions: RAW264.7, compound 10 µg/mL, LPS 10 µg/mL; for ROS production level: relative to LPS-treated cells
Method: Lipopolysaccharide (LPS)-induced reactive oxygen species (ROS) production was probed using an oxidative cell-permeant fluorescent dye 2',7'-dichlorodihydrofluorescein diacetate (H2DCF-DA) ([17]). RAW264.7 cells (5 × 10^4 cells/well) were seeded overnight into a 96 well plate and treated with compounds (10 µg/mL) at concentrations ≤ IC50 values and LPS (10 µg/mL) for 24 h at 37 °C in 5% CO2 rich incubator, then 10 μM H2DCF-DA dye (100 µL) was added for an hour. The fluorescence intensity which correlates to ROS production was measured on a microplate reader at 485 and 535 nm excitation and emission, respectively. Data obtained were subjected to analysis using GraphPad Prism (version 8.2).
Inflammation is a physiological response stimulated by the organism as a way of overcoming pathogenic events employed as a defense mechanism. However, an unregulated inflammatory response can lead to several diseases, including cancer. ROS-inducing approaches rely on the fact that increasing the ROS level over the cytotoxic threshold can result in cellular impairment, damaging DNA, RNA, proteins and lipids in normal cells, even though macrophage cells cannot phagocytize cancerous cells, but release a reasonable amount of pro-inflammatory cytokines that quench cancer cells yet are cytoprotective to normal cells ([6]). In this regard, it was considered that the compounds tested would be able to reduce the production of LPS-induced ROS in normal macrophages. Determination of ROS production in RAW264.7 cells was conducted using the non-toxic IC50 value of 10 µg/mL for all compounds (Table 2). Cells were pre-treated with compounds for 20 h and LPS was added in all treated cells except the untreated control cells. Thereafter H2DCFDA was introduced to the cells. […]
Figure 3 Effects of S. nigrescens compounds 1-6 on LPS-induced ROS production by RAW264.7 cells measured by a micro plate reader (Thermo Scientific Varioskan Flash). […] Experiments were conducted in triplicate and data is expressed as the mean ± SD with p-values calculated against control ^**p < 0.01; ^***p < 0.001

RAW264.7 cells [2] = test: MTT cytotoxicity assay on normal macrophage cells; format: cell-based; conditions: Mus musculus, RAW264.7 normal murine macrophage cells, 24 h
Method: (§1) Cytotoxicity and antiproliferative effects of compounds were evaluated against Murine macrophage cells (RAW264.7) and breast adenocarcinoma cancer cells (MDA-MB-231) using the spectrophotometric, 3-(4,5-dimethylthiazol-2-yl)-2,5-diphenyltetrazolium bromide (MTT) assay ([16]). Cells (5 × 10^4 cell/well) were seeded in Dulbecco’s modified eagle’s medium (DMEM; Gibco) in a 96 well plate for 24 h incubation at 37 °C in 5% CO2 and treated with compounds (2.5 - 200 µg/mL) and positive control, Doxorubicin (2.5 - 200 µM). Untreated cells and 5% DMSO treated cells were assayed as negative and solvent control, respectively. After 24 h incubation, 20 µL MTT dye (5 mg/mL) was pipetted in all wells including wells with untreated cells, and incubated for 4 h. The medium was aspirated and 100 µL of DMSO was added to all the wells to dissolve the formazan crystals and the optical density (OD) was measured after an hour at 570 nm using a microplate reader.

[3] = tested on: Candida albicans ATCC 10231; test: Microplate serial dilution MIC assay (resazurin); format: cell-based; conditions: ATCC10231, C. albicans ATCC 10231, 24 h at 37 °C, tested 7.8-1000 µg/mL
Method: (§2) Three microorganisms used in this study, two bacterial strains (Escherichia coli ATCC 25922 - Gram-negative and Staphylococcus aureus ATCC 25923 - Gram-positive) and a fungus (Candida albicans ATCC 10231) were procured from Anatech Instruments (Pty) Ltd, Randburg, Gauteng, South Africa (Anatech, Kwik-stick®). Escherichia coli and S. aureus were cultured in nutrient agar while the fungus (C. albicans ATCC 10231) was cultured on sabouraud dextrose agar (SDA) and incubated for 24 h under aerobic conditions at 37 °C. Pure colonies of microorganisms from the agar were transferred onto nutrient broth and sabouraud dextrose broth (SDB) to obtain an overnight culture. Compounds 1 – 6 were weighed and dissolved in 5% Dimethyl sulfoxide (DMSO) to a final working stock solution of 4 mg/mL. Standard antibiotics Ciprofloxacin and Amphotericin-B were also dissolved in 5% DMSO. The samples were kept at 20 °C in the dark until used. Antimicrobial activity was done using the microplate serial dilution method by Eloff, ([14]). The minimum inhibitory concentration (MIC) was defined as the lowest concentration of the compound capable of inhibiting microbial growth. The microorganisms were adjusted according to 0.5 McFarland standard solution to a final concentration of 1.5 × 10^4 CFU/mL in sterile 0.85% sodium chloride (NaCl) solution. Compounds were tested at the concentration range of 7.8-1000 µg/mL in 96 well plates and incubated with microorganisms for 24 h at 37 °C. Ciprofloxacin and Amphotericin-B were used as positive controls for bacterial and fungal assays, respectively. In addition, sterile distilled 5% DMSO was used as a negative control. A staining reagent, 50 µL Resazurin sodium salt (0.2 mg/mL) was used as an indicator of microbial growth and the MIC was visually determined ([15]).

[4] = tested on: Staphylococcus aureus ATCC 25923; test: Microplate serial dilution MIC assay (resazurin); format: cell-based; conditions: ATCC25923, S. aureus ATCC 25923, 24 h at 37 °C, tested 7.8-1000 µg/mL
Method: as §2

[5] = tested on: Escherichia coli ATCC 25922; test: Microplate serial dilution MIC assay (resazurin); format: cell-based; conditions: ATCC25922, E. coli ATCC 25922, 24 h at 37 °C, tested 7.8-1000 µg/mL
Method: as §2

MDA-MB-231 cells = test: MTT cytotoxicity assay on breast cancer cells; format: cell-based, human; conditions: for IC50: Homo sapiens, MDA-MB-231 breast cancer cells, MTT, 24 h; for selectivity index (SI): toxicity on RAW264.7 compared to MDA-MB-231 cancer cells
Method: as §1

[6] = tested on: Escherichia coli, Staphylococcus aureus and Candida albicans; test: Microplate serial dilution MIC assay, stated across the three strains; format: cell-based; conditions: across the three strains (E. coli, S. aureus, C. albicans)
Method: as §2, with “The microorganisms were adjusted according to 0.5 McFarland standard solution to a final concentration of 1.5 × 10^4 CFU/mL in sterile 0.85% sodium chloride (NaCl) solution. Compounds were tested at the concentration range of 7.8-1000 µg/mL in 96 well plates and incubated with microorganisms for 24 h at 37 °C. Ciprofloxacin and Amphotericin-B were used as positive controls for bacterial and fungal assays, respectively. In addition, sterile distilled 5% DMSO was used as a negative control.” left out

S. aureus = tested on: S. aureus; design: method as in PMID 35914415; conditions: reducing cell surface hydrophobicity and membrane permeability; cited from earlier work
LPS-induced ROS = tested on: LPS-induced ROS; design: method as in PMID 18254591, PMID 30302324; conditions: read-out: IC50, inhibition of LPS-induced ROS; cited from earlier work
LPS-induced RNS = tested on: LPS-induced RNS; design: method as in PMID 18254591, PMID 30302324; conditions: read-out: IC50, inhibition of LPS-induced RNS; cited from earlier work

MIC [3] [µg/mL] | MIC [4] [µg/mL] | MIC [5] [µg/mL] | SMILES | ROS production level (RAW264.7 cells [1]) | IC50 (RAW264.7 cells [2]) [µg/mL] | IC50 (MDA-MB-231 cells) [µg/mL] | selectivity index (SI) (MDA-MB-231 cells) | MIC [6] [µg/mL] | MIC (S. aureus) [µg/mL] | reduction of ROS (RAW264.7 cells [1]) | IC50 (LPS-induced ROS) [µM] | IC50 (LPS-induced RNS) [µM]
31.2 (≈ 98.8 µM) | 31.2 (≈ 98.8 µM) | 62.5 (≈ 198 µM) | COc1c(-c2ccc(O)c(O)c2)oc2cc(O)cc(O)c2c1=O [Compound 6, quercetin-3-O-methyl ether] | below 50% | 28.7 (≈ 90.8 µM) | 14 (≈ 44.4 µM) | 2.04 |  |  |  |  | 
62.5 (≈ 205 µM) | 125 (≈ 411 µM) | 250 (≈ 821 µM) | CC1=CC23CCC4C(C)(CO)CCCC4(CO)C2CCC1C3 (stereo not drawn) [Compound 3, ent-kaur-15-en-18,20-diol] |  | 18.5 (≈ 60.8 µM) | 12.6 (≈ 41.4 µM) | 1.46 |  |  |  |  | 
 |  |  | C=C(CO)C1CCC2(C)CCC3(C)C(CCC4C5(C)CCC(O)C(C)(C)C5CCC43C)C12 (stereo not drawn) [Compound 2, 30-hydroxylup-20(29)-en-3β-ol] |  | 22.8 (≈ 51.5 µM) | 11.9 (≈ 26.8 µM) | 1.92 | ≥ 250 |  |  |  | 
 |  |  | COc1cccc2c1C(=O)c1c(O)c3c(c(O)c1C2=O)C[C@@](O)(C(=O)CO)C[C@@H]3O[C@H]1C[C@H](N)[C@H](O)[C@H](C)O1 [doxorubicin, reference compound] |  | 10.6 (≈ 19.5 µM) | 9.35 (≈ 17.2 µM) | 1.13 |  |  |  |  | 
 |  |  | O=c1cc(-c2ccc(O)cc2)oc2c([C@@H]3O[C@H](CO)[C@@H](O)[C@H](O)[C@H]3O)c(O)cc(O)c12 [Apigenin-8-C-glucoside] |  |  |  |  |  | 126 (≈ 291 µM) |  |  | 
31.2 (≈ 103 µM) | 31.2 (≈ 103 µM) | 62.5 (≈ 207 µM) | O=c1c(O)c(-c2ccc(O)c(O)c2)oc2cc(O)cc(O)c12 [Compound 5, quercetin] | below 50% | 22.6 (≈ 74.8 µM) | 20.6 (≈ 68.2 µM) | 1.09 |  |  |  |  | 
 |  |  | O=c1c(O)c(-c2ccc(O)c(O)c2)oc2c(O)c(O)ccc12 [Compound 4, melanoxetin] |  | 15.8 (≈ 52.3 µM) | 22.2 (≈ 73.4 µM) |  |  |  | approximately 40% | 12.5 | 6.9
 |  |  | C=C(C=O)C1CCC2(C)CCC3(C)C(CCC4C5(C)CCC(O)C(C)(C)C5CCC43C)C12 (stereo not drawn) [Compound 1, 3β-hydroxy-20(29)-en-lupan-30-al] |  | 16.9 (≈ 38.3 µM) | 26.6 (≈ 60.5 µM) |  | ≥ 250 |  |  |  | 
